From the NIST ThermoML archive (doi:10.1016/j.jct.2018.08.005)

Experiment: xn = mol fraction of the nth substance listed
Details: Liquid; for mass density: Vibrating tube method; for speed of sound: Frequency=3 MHz, Pulse-echo method

CCOC(F)(C(F)(F)C(F)(F)C(F)(F)F)C(F)(C(F)(F)F)C(F)(F)F (stereo not given) [2-trifluoromethyl-3-ethoxydodecafluorohexane] + CC(C)OC(C)C
Details | mass density, x1 = 0.25 [kg/m3] | mass density, x1 = 0.375 [kg/m3] | mass density, x1 = 0.5 [kg/m3] | mass density, x1 = 0.625 [kg/m3] | mass density, x1 = 0.75 [kg/m3] | speed of sound, x1 = 0.25 [m/s] | speed of sound, x1 = 0.375 [m/s] | speed of sound, x1 = 0.5 [m/s] | speed of sound, x1 = 0.625 [m/s] | speed of sound, x1 = 0.75 [m/s]
313.15 K, 50000 kPa | – | – | – | 1451.1 | 1541 | – | – | – | – | –
313.15 K, 60000 kPa | 1111.4 | 1244.1 | 1360.5 | 1464.9 | 1555.4 | 1065.1 | 1009.2 | 967.9 | 946.8 | 921.7
313.15 K, 70000 kPa | 1121.5 | 1255 | 1372.6 | 1477.7 | 1568.7 | – | – | – | – | –
313.15 K, 80000 kPa | 1130.9 | 1265.4 | 1383.8 | 1489.6 | 1581.1 | 1141.4 | 1082.8 | 1039.3 | 1017.4 | 990.1
313.15 K, 90000 kPa | 1139.7 | 1275.3 | 1394.3 | 1500.7 | 1592.6 | – | – | – | – | –
313.15 K, 100000 kPa | 1148 | 1284.4 | 1404.2 | 1511.1 | 1603.5 | 1209.6 | 1148.8 | 1102.9 | 1079.9 | 1050.9
313.15 K, 110000 kPa | 1156 | 1293.2 | 1413.7 | 1521.2 | 1614 | – | – | – | – | –
313.15 K, 120000 kPa | 1163.3 | 1301.3 | 1422.4 | 1530.6 | 1623.6 | – | – | – | – | –
313.15 K, 130000 kPa | 1170.4 | 1309.4 | 1431 | 1539.5 | 1633 | – | – | – | – | –
313.15 K, 140000 kPa | 1177.2 | 1316.8 | 1439 | 1548.1 | 1641.9 | – | – | – | – | –
323.15 K, 100 kPa | 1006.7 | 1127.2 | 1235 | 1332.2 | 1418.1 | 693.3 | 650 | 624.3 | 609.9 | 597.4
323.15 K, 10000 kPa | 1029 | 1152.3 | 1262 | 1360.8 | 1447.4 | – | – | – | – | –
323.15 K, 20000 kPa | 1047.5 | 1173 | 1284.2 | 1384.2 | 1471.7 | 841.6 | 794.7 | 761.3 | 745.2 | 726.1
323.15 K, 30000 kPa | 1063.3 | 1190.5 | 1303.2 | 1404.3 | 1492.5 | – | – | – | – | –
323.15 K, 40000 kPa | 1077.2 | 1206.1 | 1319.9 | 1421.9 | 1510.7 | 952.5 | 901 | 862.9 | 846.1 | 822.8
323.15 K, 50000 kPa | 1089.7 | 1220 | 1334.9 | 1437.6 | 1527.2 | – | – | – | – | –
323.15 K, 60000 kPa | 1101 | 1232.6 | 1348.5 | 1452 | 1542.2 | 1043.6 | 987.7 | 946.9 | 927.8 | 902.5
323.15 K, 70000 kPa | 1111.5 | 1244.2 | 1361 | 1465.1 | 1555.9 | – | – | – | – | –
323.15 K, 80000 kPa | 1121.1 | 1255 | 1372.5 | 1477.3 | 1568.7 | 1123.2 | 1063 | 1019.6 | 998.6 | 971.8
323.15 K, 90000 kPa | 1130.2 | 1265.1 | 1383.4 | 1488.8 | 1580.6 | – | – | – | – | –
323.15 K, 100000 kPa | 1138.8 | 1274.5 | 1393.7 | 1499.6 | 1591.9 | 1193.8 | 1129.2 | 1084.4 | 1061.6 | 1033.7
323.15 K, 110000 kPa | 1146.9 | 1283.5 | 1403.2 | 1509.8 | 1602.5 | – | – | – | – | –
323.15 K, 120000 kPa | 1154.5 | 1291.9 | 1412.4 | 1519.5 | 1612.5 | – | – | – | – | –
323.15 K, 130000 kPa | 1161.7 | 1299.9 | 1421.1 | 1528.7 | 1622.1 | – | – | – | – | –
323.15 K, 140000 kPa | 1168.7 | 1307.7 | 1429.4 | 1537.4 | 1631.3 | – | – | – | – | –
333.15 K, 100 kPa | 990.5 | 1109.5 | 1216.5 | 1312.3 | 1397.5 | 659.8 | 617.9 | 593.4 | 579.9 | 568.6
333.15 K, 10000 kPa | 1014.9 | 1137 | 1245.9 | 1343.3 | 1429.3 | – | – | – | – | –
333.15 K, 20000 kPa | 1034.7 | 1159.2 | 1269.8 | 1368.5 | 1455.3 | 816 | 769.7 | 737.4 | 720.8 | 703.1
333.15 K, 30000 kPa | 1051.5 | 1177.9 | 1290 | 1389.8 | 1477.3 | – | – | – | – | –
333.15 K, 40000 kPa | 1066.2 | 1194.2 | 1307.5 | 1408.4 | 1496.6 | 930.9 | 878.9 | 842 | 823.8 | 802.8
333.15 K, 50000 kPa | 1079.3 | 1208.8 | 1323.2 | 1424.9 | 1513.8 | – | – | – | – | –
333.15 K, 60000 kPa | 1091.1 | 1222 | 1337.3 | 1439.9 | 1529.4 | 1024.9 | 968.2 | 927.8 | 907.5 | 884.3
333.15 K, 70000 kPa | 1101.9 | 1234 | 1350.3 | 1453.7 | 1543.7 | – | – | – | – | –
333.15 K, 80000 kPa | 1112 | 1244.9 | 1362.3 | 1466.4 | 1556.9 | 1106.8 | 1044.5 | 1001.6 | 980 | 954.4
333.15 K, 90000 kPa | 1121.4 | 1255.4 | 1373.5 | 1478.4 | 1569.3 | – | – | – | – | –
333.15 K, 100000 kPa | 1130.3 | 1265.1 | 1384 | 1489.4 | – | – | 1111.7 | 1067.2 | 1043.9 | 1016.8
